These results are taken from patent US10059713B2 (Takeda Pharmaceutical Company Limited, priority 2014, dated 2018).

In general, EC50 refers to the concentration at which the effect is half-maximal. Low readings indicate a more potent agent, high ones a less potent agent.

Sequence of human GPR43 (O15552 whole entry): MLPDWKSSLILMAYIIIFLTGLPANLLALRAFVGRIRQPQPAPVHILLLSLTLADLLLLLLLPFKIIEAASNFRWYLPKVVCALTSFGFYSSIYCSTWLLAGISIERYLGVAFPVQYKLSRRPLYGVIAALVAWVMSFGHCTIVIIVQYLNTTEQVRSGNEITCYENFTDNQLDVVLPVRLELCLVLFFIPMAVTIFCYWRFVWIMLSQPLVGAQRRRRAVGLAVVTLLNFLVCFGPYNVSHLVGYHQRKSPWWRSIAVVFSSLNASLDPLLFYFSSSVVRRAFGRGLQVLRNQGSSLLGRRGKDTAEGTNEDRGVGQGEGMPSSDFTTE

The test addresses human GPR43 (Homo sapiens (Human), UniProt O15552). As to the kind of experiment: Ca-Flux functional assay: determination of agonist/positive allosteric modulator (PAM) activity. It counts as cell-based. The settings on record: CHO-K1 Gα16 cells stably expressing human GPR43; compound added with EC20 sodium acetate; intracellular Ca2+ by FLIPR; does not distinguish agonist from PAM. In outline:
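Agonist or PAM activity read as intracellular Ca2+ rise by FLIPR after adding compound plus EC20 acetate, acetate EC20 set from a prior curve. Cells: CHO-K1 Gα16 with stable human GPR43. EC50 from ten-point half-log curves starting 10 μM.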
Compound `Cc1nc(COc2ncnc3c(S(=O)(=O)c4ccccc4)c(N)[nH]c23)c(C)o1` [Example 163, 7-(benzenesulfonyl)-4-[(dimethyl-1,3-oxazol-4-yl)methoxy]-5H-pyrrolo[3,2-d]pyrimidin-6-amine] had a half-maximal effective concentration (EC50) of 6260 nM.

`CC(Oc1ncnc2c(S(=O)(=O)c3ccccc3)c(N)[nH]c12)c1ccccc1` (stereo not drawn) [Example 164, 7-(benzenesulfonyl)-4-(1-phenylethoxy)-5H-pyrrolo[3,2-d]pyrimidin-6-amine] yielded an EC50 of 25 nM.

`Nc1[nH]c2c(OCC3CCCCC3)ncnc2c1S(=O)(=O)c1ccccc1` [Example 165, 7-(benzenesulfonyl)-4-(cyclohexylmethoxy)-5H-pyrrolo[3,2-d]pyrimidin-6-amine] gave an EC50 of 73 nM.

As for `Nc1[nH]c2c(OC3CCOCC3)ncnc2c1S(=O)(=O)c1ccccc1` [Example 166, 7-(benzenesulfonyl)-4-(oxan-4-yloxy)-5H-pyrrolo[3,2-d]pyrimidin-6-amine], a half-maximal response (EC50) required 1640 nM.

The compound `Nc1[nH]c2c(OC3CCC3)ncnc2c1S(=O)(=O)c1ccccc1` [Example 167, 7-(benzenesulfonyl)-4-cyclobutoxy-5H-pyrrolo[3,2-d]pyrimidin-6-amine] gave an EC50 of 76 nM.

Compound `Nc1[nH]c2c(OCc3ccccc3)ncnc2c1S(=O)(=O)c1ccccc1` [Example 168, 7-(benzenesulfonyl)-4-(benzyloxy)-5H-pyrrolo[3,2-d]pyrimidin-6-amine] gave an EC50 of 134 nM.

Regarding `Nc1[nH]c2c(OCC3CCOCC3)ncnc2c1S(=O)(=O)c1ccccc1` [Example 169, 7-(benzenesulfonyl)-4-(oxan-4-ylmethoxy)-5H-pyrrolo[3,2-d]pyrimidin-6-amine], the EC50 came to 1890 nM.

The compound `CC(Oc1ncnc2c(S(=O)(=O)c3ccccc3)c(N)[nH]c12)C1CC1` (stereo not drawn) [Example 170, 7-(benzenesulfonyl)-4-(1-cyclopropylethoxy)-5H-pyrrolo[3,2-d]pyrimidin-6-amine] registered an EC50 of 40 nM.

The compound `Nc1[nH]c2c(OCC3CC(F)(F)C3)ncnc2c1S(=O)(=O)c1ccccc1` [Example 171, 7-(benzenesulfonyl)-4-[(3,3-difluorocyclobutyl)methoxy]-5H-pyrrolo[3,2-d]pyrimidin-6-amine] registered an EC50 of 134 nM.

`CC1CC1COc1ncnc2c(S(=O)(=O)c3ccccc3)c(N)[nH]c12` (stereo not drawn) [Example 172, 7-(benzenesulfonyl)-4-[(2-methylcyclopropyl)methoxy]-5H-pyrrolo[3,2-d]pyrimidin-6-amine] registered an EC50 of 78 nM.

The compound `CC1(COc2ncnc3c(S(=O)(=O)c4ccccc4)c(N)[nH]c23)CC1` [Example 173, 7-(benzenesulfonyl)-4-[(1-methylcyclopropyl)methoxy]-5H-pyrrolo[3,2-d]pyrimidin-6-amine] returned an EC50 of 364 nM.

Compound `COCCOc1ncnc2c(S(=O)(=O)c3ccccc3)c(N)[nH]c12` [Example 174, 7-(benzenesulfonyl)-4-(2-methoxyethoxy)-5H-pyrrolo[3,2-d]pyrimidin-6-amine] registered an EC50 of 6620 nM.

As to `Nc1[nH]c2c(OCC3CC3(F)F)ncnc2c1S(=O)(=O)c1ccccc1` (stereo not drawn) [Example 175, 7-(benzenesulfonyl)-4-[(2,2-difluorocyclopropyl)methoxy]-5H-pyrrolo[3,2-d]pyrimidin-6-amine], the half-maximal effective concentration (EC50) was 373 nM.

The compound `Cc1nc(N2CCOC(C)C2)c2[nH]c(N)c(S(=O)(=O)c3ccccc3F)c2n1` (stereo not drawn) [Example 176, 7-(2-fluorobenzenesulfonyl)-2-methyl-4-(2-methylmorpholin-4-yl)-5H-pyrrolo[3,2-d]pyrimidin-6-amine] displayed an EC50 of 8 nM.

Compound `Cc1nc(N2CCOC3(CCCC3)C2)c2[nH]c(N)c(S(=O)(=O)c3ccccc3F)c2n1` [Example 177, 7-(2-fluorobenzenesulfonyl)-2-methyl-4-{6-oxa-9-azaspiro[4.5]decan-9-yl}-5H-pyrrolo[3,2-d]pyrimidin-6-amine] registered an EC50 of 6 nM.

`Cc1cc(F)ccc1S(=O)(=O)c1c(N)[nH]c2c(N3CCOC(C)C3)ncnc12` (stereo not drawn) [Example 178, 7-(4-fluoro-2-methylbenzenesulfonyl)-4-(2-methylmorpholin-4-yl)-5H-pyrrolo[3,2-d]pyrimidin-6-amine] showed an EC50 of 676 nM.

As for `Cc1nc(N2C[C@@H](C)O[C@@H](C)C2)c2[nH]c(N)c(S(=O)(=O)c3cccc(F)c3)c2n1` [Example 179, 4-[(2R,6S)-2,6-dimethylmorpholin-4-yl]-7-(3-fluorobenzenesulfonyl)-2-methyl-5H-pyrrolo[3,2-d]pyrimidin-6-amine], a half-maximal effect (EC50) was put at 18 nM.

In turn, `Cc1nc(N2CCOC(C)C2)c2[nH]c(N)c(S(=O)(=O)c3cccc(F)c3)c2n1` (stereo not drawn) [Example 180, 7-(3-fluorobenzenesulfonyl)-2-methyl-4-(2-methylmorpholin-4-yl)-5H-pyrrolo[3,2-d]pyrimidin-6-amine] came in with an EC50 of 43 nM.

With `Cc1nc(N2CCC(F)(F)CC2)c2[nH]c(N)c(S(=O)(=O)c3cccc(F)c3)c2n1` [Example 181, 4-(4,4-difluoropiperidin-1-yl)-7-(3-fluorobenzenesulfonyl)-2-methyl-5H-pyrrolo[3,2-d]pyrimidin-6-amine], the response was half-maximal at 82 nM (EC50).

Compound `Cc1nc(N2CCOC(C)C2)c2[nH]c(N)c(S(=O)(=O)c3cccc(F)c3F)c2n1` (stereo not drawn) [Example 182, 7-(2,3-difluorobenzenesulfonyl)-2-methyl-4-(2-methylmorpholin-4-yl)-5H-pyrrolo[3,2-d]pyrimidin-6-amine] came in with an EC50 of 6 nM.

`Cc1nc(C2CCC(F)(F)CC2)c2[nH]c(N)c(S(=O)(=O)c3ccccc3)c2n1` [Example 183, 7-(benzenesulfonyl)-4-(4,4-difluorocyclohexyl)-2-methyl-5H-pyrrolo[3,2-d]pyrimidin-6-amine]: the EC50 was 173 nM.

As for `CC(C)C1CN(c2ncnc3c(S(=O)(=O)c4ccccc4)c(N)[nH]c23)CCO1` (stereo not drawn) [Example 184, 7-(benzenesulfonyl)-4-[2-(propan-2-yl)morpholin-4-yl]-5H-pyrrolo[3,2-d]pyrimidin-6-amine], the EC50 stood at 83 nM.

Consider `Cc1nc(N2CCOC(C)(C)C2)c2[nH]c(N)c(S(=O)(=O)c3ccccc3F)c2n1` [Example 185, 4-(2,2-dimethylmorpholin-4-yl)-7-(2-fluorobenzenesulfonyl)-2-methyl-5H-pyrrolo[3,2-d]pyrimidin-6-amine], for which a half-maximal response (EC50) required 6 nM.

`Cc1nc(N2CCC(F)(F)CC2)c2[nH]c(N)c(S(=O)(=O)c3ccccc3F)c2n1` [Example 186, 4-(4,4-difluoropiperidin-1-yl)-7-(2-fluorobenzenesulfonyl)-2-methyl-5H-pyrrolo[3,2-d]pyrimidin-6-amine] gave an EC50 of 14 nM.

With `Cc1nc(N2C[C@@H](C)O[C@@H](C)C2)c2[nH]c(N)c(S(=O)(=O)c3ccccc3F)c2n1` [Example 187, 4-[(2R,6S)-2,6-dimethylmorpholin-4-yl]-7-(2-fluorobenzenesulfonyl)-2-methyl-5H-pyrrolo[3,2-d]pyrimidin-6-amine], the response was half-maximal at 5 nM (EC50).

`CCN(CC1CCOCC1)c1ncnc2c(S(=O)(=O)c3ccccc3)c(N)[nH]c12` [Example 188, 7-(benzenesulfonyl)-4-N-ethyl-4-N-(oxan-4-ylmethyl)-5H-pyrrolo[3,2-d]pyrimidine-4,6-diamine] came in with an EC50 of 2660 nM.

`CN(c1ncnc2c(S(=O)(=O)c3ccccc3)c(N)[nH]c12)C1CCOC(C)(C)C1` (stereo not drawn) [Example 189, 7-(benzenesulfonyl)-4-N-(2,2-dimethyloxan-4-yl)-4-N-methyl-5H-pyrrolo[3,2-d]pyrimidine-4,6-diamine] showed an EC50 of 1970 nM.

Turning to `CCC1CN(c2ncnc3c(S(=O)(=O)c4ccc(OC)cc4)c(N)[nH]c23)CCO1` (stereo not drawn) [Example 190, 4-(2-ethylmorpholin-4-yl)-7-(4-methoxybenzenesulfonyl)-5H-pyrrolo[3,2-d]pyrimidin-6-amine], the EC50 came to 125 nM.

`Cc1nc(N2CCOC(C)(C)C2)c2[nH]c(N)c(S(=O)(=O)c3cccc(F)c3)c2n1` [Example 191, 4-(2,2-dimethylmorpholin-4-yl)-7-(3-fluorobenzenesulfonyl)-2-methyl-5H-pyrrolo[3,2-d]pyrimidin-6-amine] gave an EC50 of 43 nM.

Turning to `Cc1nc(N2CCOC3(CC3)C2)c2[nH]c(N)c(S(=O)(=O)c3cccc(F)c3)c2n1` [Example 192, 7-(3-fluorobenzenesulfonyl)-2-methyl-4-{4-oxa-7-azaspiro[2.5]octan-7-yl}-5H-pyrrolo[3,2-d]pyrimidin-6-amine], a half-maximal response (EC50) required 31 nM.

As for `Cc1nc(N(C)C(C)C)c2[nH]c(N)c(S(=O)(=O)c3cccc(F)c3)c2n1` [Example 193, 7-(3-fluorobenzenesulfonyl)-2,4-N-dimethyl-4-N-(propan-2-yl)-5H-pyrrolo[3,2-d]pyrimidine-4,6-diamine], a half-maximal response (EC50) required 270 nM.

In turn, `Cc1nc(OCC2CC2)c2[nH]c(N)c(S(=O)(=O)c3cccc(F)c3)c2n1` [Example 194, 4-(cyclopropylmethoxy)-7-(3-fluorobenzenesulfonyl)-2-methyl-5H-pyrrolo[3,2-d]pyrimidin-6-amine] gave an EC50 of 475 nM.

`CC1CN(c2ncnc3c(S(=O)(=O)c4ccccc4)c(N)[nH]c23)CCS1` (stereo not drawn) [Example 195, 7-(benzenesulfonyl)-4-(2-methylthiomorpholin-4-yl)-5H-pyrrolo[3,2-d]pyrimidin-6-amine] displayed an EC50 of 8 nM.

Regarding `CCC1CN(c2ncnc3c(S(=O)(=O)c4ccccc4)c(N)[nH]c23)CCS1` (stereo not drawn) [Example 196, 7-(benzenesulfonyl)-4-(2-ethylthiomorpholin-4-yl)-5H-pyrrolo[3,2-d]pyrimidin-6-amine], the EC50 amounted to 10 nM.

The compound `CC1CN(c2ncnc3c(S(=O)(=O)c4ccccc4)c(N)[nH]c23)CC(C)S1` (stereo not drawn) [Example 197, 7-(benzenesulfonyl)-4-(2,6-dimethylthiomorpholin-4-yl)-5H-pyrrolo[3,2-d]pyrimidin-6-amine] came in with a concentration giving a half-maximal response (EC50) of 4 nM.

`Cc1nc(N2CCCC(C)C2)c2[nH]c(N)c(S(=O)(=O)c3cccc(F)c3)c2n1` (stereo not drawn) [Example 198, 7-(3-fluorobenzenesulfonyl)-2-methyl-4-(3-methylpiperidin-1-yl)-5H-pyrrolo[3,2-d]pyrimidin-6-amine] yielded an EC50 of 31 nM.
